We go through 19 compounds from patent publication US6310093A (priority 1998, dated 2001).

The target of the experiment is T1, glutaminase (brain membranes) (Rattus norvegicus, UniProt P13264).
T1 construct: Membranes are prepared by homogenization of brain tissue in 330 mM sucrose; from tissue; host or cells: rat brain, crude membranes (17000 G pellet)
T1 sequence (P13264 73-674 limits assumed): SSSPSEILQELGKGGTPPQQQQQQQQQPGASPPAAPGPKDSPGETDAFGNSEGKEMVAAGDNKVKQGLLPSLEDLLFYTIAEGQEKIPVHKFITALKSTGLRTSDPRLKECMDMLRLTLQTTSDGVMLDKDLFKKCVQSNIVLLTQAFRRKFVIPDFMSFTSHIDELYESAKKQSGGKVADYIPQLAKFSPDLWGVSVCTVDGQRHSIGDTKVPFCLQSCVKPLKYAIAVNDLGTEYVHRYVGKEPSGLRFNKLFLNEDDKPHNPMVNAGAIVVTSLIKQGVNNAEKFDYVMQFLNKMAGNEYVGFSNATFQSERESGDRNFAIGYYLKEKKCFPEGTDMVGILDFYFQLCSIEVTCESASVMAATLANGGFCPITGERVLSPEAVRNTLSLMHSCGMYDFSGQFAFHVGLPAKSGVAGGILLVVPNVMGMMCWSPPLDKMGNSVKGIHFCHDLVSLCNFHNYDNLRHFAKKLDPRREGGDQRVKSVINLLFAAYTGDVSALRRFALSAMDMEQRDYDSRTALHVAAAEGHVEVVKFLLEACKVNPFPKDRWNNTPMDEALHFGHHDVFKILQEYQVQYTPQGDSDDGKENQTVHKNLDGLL
As to the kind of experiment: biochemical. More on the design: Glutaminase Activity: unit not given here. Particulars: for Glutaminase Activity: brain membranes.

Setting [1] is: read-out: glutaminase activity, phosphate-containing compounds.

Like-named read-outs stand apart in the source and are kept apart here. Residues, ends and D or L forms follow the SMILES beside them.

Turning to `CC(CC(N)C(=O)O)C(=O)O` (racemic) [(±)-threo-4-methylglutamate], where the note is “read-out: Glutaminase Activity”, the activity at 3300 µM worked out at 170% and the activity at 9000 µM was 100%.

Turning to `CC(=O)NC(CCC(=O)O)C(=O)O` (racemic) [N-acetyl-DL-glutamate], where the note is “read-out: Glutaminase Activity”, the activity at 3300 µM was found to be 92 ± 10% and the activity at 9000 µM came to 75 ± 10%.

Take `CNC(CCC(=O)O)C(=O)O` (racemic) [N-methyl-DL-glutamate]: where the note is “read-out: Glutaminase Activity”, the activity at 3300 µM turned out to be 102% and the activity at 9000 µM worked out at 124%.

As for `CC(N)(CCC(=O)O)C(=O)O` (racemic) [α-methyl-DL-glutamate], the activity at 3300 µM (read-out: Glutaminase Activity) stood at 76%.

On to `C=C(CC(N)C(=O)O)C(=O)O` (racemic) [γ-methylene-DL-glutamate], for which the activity at 3300 µM (read-out: Glutaminase Activity) stood at 105 ± 10%.

For `C[C@@H](CC(=O)O)[C@H](N)C(=O)O` (relative stereo) [(±)-erythro-3-methylglutamate], the “glutaminase inhibition (in words)” value is “moderate inhibition”. For the same compound, where the note is “read-out: Glutaminase Activity”, the activity at 3300 µM amounted to 34% and the activity at 9000 µM came out at 18%.

Regarding `C[C@H](CC(=O)O)[C@H](N)C(=O)O` (relative stereo) [(±)-threo-3-methylglutamate], for the setting “read-out: Glutaminase Activity”, the activity at 3300 µM stood at 91% and the activity at 9000 µM turned out to be 7%.

For `NC(CC(N)C(=O)O)C(=O)O` (stereo not drawn) [2,4-diaminopentanedioic acid], under “read-out: Glutaminase Activity”, the activity at 3300 µM was 82 ± 7% and the activity at 9000 µM was determined as 103 ± 25%.

For `CCOP(=O)(OCC)c1ccc(P(=O)(OCC)OCC)s1` [2,5-bis(diethoxyphosphoryl) thiophene], under setting [1], the activity at 3000 µM is 75 to 90% and the activity at 9000 µM lay within 70 to 85%.

On to `O=C(O)C(CC=C1c2ccccc2C=Cc2ccccc21)C(=O)O` [2-(2-dibenzo(a,d)cyclohepten-5-ylidene)-ethyl malonic acid], for which the “dependence of glutaminase inhibition on phosphate level and concentration (in words)” value was “inhibition was reduced in the presence of high phosphate levels; the effect was particularly evident”. Besides, the “Glutaminase Activity” value (300 µM) came to 83 ± 7. The “Glutaminase Activity” value (1000 µM) worked out at 61 ± 4. Also, for the setting “read-out: Glutaminase Activity”, the activity at 100 µM came out at 86 ± 10%, the activity at 300 µM came to 75 ± 5% and the activity at 1000 µM was 44 ± 2%.

As to `C=CCCCCCCCCCC(C(=O)O)C(=O)O` [2-undec-10-enyl malonate], the “Glutaminase Activity” value is recorded as 89 ± 6 (100 µM) and 87 ± 2 (300 µM). Moreover, the activity at 100 µM (read-out: Glutaminase Activity) was found to be 96 ± 7%. The activity at 300 µM (read-out: Glutaminase Activity) was determined as 67 ± 2%.

As usually defined, the IC50 is the concentration needed to halve the response being measured. `N[C@@H](CC(F)C(=O)O)C(=O)O` (stereo partly drawn) [4-fluoroglutamic acid] displayed an IC50 of 500 µM. Further, for the setting “read-out: Glutaminase Activity”, the activity at 330 µM was 67 ± 7%, the activity at 1000 µM was determined as 30 ± 9% and the activity at 3300 µM stood at 4.2 ± 1.3%.

For `CC[C@](N)(CCC(=O)O)C(=O)O` [(2S)-α-ethyl glutamic acid], for the setting “read-out: Glutaminase Activity”, the activity at 3300 µM was determined as 95%.

`C[C@H](N)C(=O)N[C@@H](CCC(=O)O)C(=O)O` [Ala--Glu] (H-Ala-Glu-OH): for the setting “read-out: Glutaminase Activity”, the activity at 3300 µM was 117% and the activity at 9000 µM amounted to 115%.

For `N=C(N)NCCC[C@H](N)C(=O)N[C@@H](CCC(=O)O)C(=O)O` [Arg--Glu] (H-Arg-Glu-OH), under “read-out: Glutaminase Activity”, the activity at 3300 µM stood at 123% and the activity at 9000 µM was 118%.

On to `N[C@@H](CC(=O)O)C(=O)N[C@@H](CCC(=O)O)C(=O)O` [Asp--Glu] (H-Asp-Glu-OH), for which the “glutaminase inhibition (in words)” value is on record as “moderate inhibition”. Where the note is “read-out: Glutaminase Activity”, the activity at 3300 µM stood at 77% and the activity at 9000 µM was determined as 32%.

In the case of `CC(C)(C)OC(=O)N[C@@H](CCC(=O)O)C(=O)O` [BOC--Glu--OH], under “read-out: Glutaminase Activity”, the activity at 3300 µM came out at 101% and the activity at 9000 µM stood at 100%.

For the compound `CC(C)(C)OC(=O)NCC(=O)NC(CC(F)C(=O)O)C(=O)O` (stereo not drawn) [BOC-glycyl-4-fluoroglutamate], under “read-out: Glutaminase Activity”, the activity at 3300 µM was 52% and the activity at 9000 µM was determined as 15%.

For `N[C@@H](CCC(=O)O)C(=O)N[C@@H](CCC(=O)O)C(=O)O` [Glu--Glu] (H-Glu-Glu-OH), under “read-out: Glutaminase Activity”, the activity at 3300 µM was determined as 130% and the activity at 9000 µM was found to be 141%.
